Laboratory results from patent US20250250257A1, “NOVEL CRYSTALLINE FORMS” (Assembly Biosciences, Inc., priority 2021, published 2025).
Converted amounts (≈) assume the structure as drawn. “Also recorded” adds a separate entry of the source.

Legend:
Assay type in all cases: physicochemical
[1] = Approximate solubility test of Compound I at room temperature / 50° C. in different solvents; settings: thermodynamic from solid
Protocol: The specific steps are as follows: Charge about 5 mg of Compound I into a clean glass vial, […] visible particles (add up to 1.5 mL of solvent), record the amount of solvent at last for the calculation of solubility.

[2] = DVS (water sorption, hygroscopicity, form change post-DVS); settings: for form change post-DVS (XRPD): after DVS (desorption and resorption)
[3] = Approximate solubility of Compound I, Type 1 at RT in twenty solvents (stepwise solvent addition); settings: for solubility: thermodynamic from solid, read-out: Approximate Solubility (mg/mL) at RT
Protocol: The solubility of Compound I, Type 1 (6036531-01-A) was estimated at RT in twenty different solvents. Approximately 2 mg solids were added into a 3-mL glass vial. Solvents in Table 39 were then added stepwise (50 μL per step) into the vials until the solids were dissolved or a total volume of 2 mL was reached.

With `Cn1cnc(C2CC3CC(O)(c4cc(OCC(C)(C)O)nn4C)CC3C2)c1C(=O)Nc1ccc(F)c(Cl)c1` (centres unmarked) [Compound I, N-(3-Chloro-4-fluorophenyl)-4-(5-hydroxy-5-(3-(2-hydroxy-2-methylpropoxy)-1-methyl-1H-pyrazol-5-yl)octahydropentalen-2-yl)-1-methyl-1H-imidazole-5-carboxamide] as the molecule, how does the solubility ([1]; organic solvent or mixture, ACN, 20-25° C., read-out: Solubility (mg/mL) 20-25° C.) read?
The solubility was less than 3.3 mg/mL.

And the solubility ([1]; organic solvent or mixture, ACN, 50° C., read-out: Solubility (mg/mL) 50° C.)?
Its solubility is less than 3.3 mg/mL.

And the solubility ([1]; organic solvent or mixture, Acetone, 20-25° C., read-out: Solubility (mg/mL) 20-25° C.)?
Its solubility is less than 3.3 mg/mL.

What about the solubility ([1]; organic solvent or mixture, Acetone, 50° C., read-out: Solubility (mg/mL) 50° C.) of the same molecule?
Its solubility is 3.8 to 4 mg/mL (≈ 6.96 to 7.33 mM).

And the solubility ([1]; organic solvent or mixture, Acetone/H2O = 95/5(V/V), 20-25° C., read-out: Solubility (mg/mL) 20-25° C.)?
Its solubility is 5 to 5.1 mg/mL (≈ 9.16 to 9.34 mM).

What about the solubility ([1]; organic solvent or mixture, Acetone/H2O = 95/5(V/V), 50° C., read-out: Solubility (mg/mL) 50° C.) of the same molecule?
Its solubility is 6.5 to 6.7 mg/mL (≈ 11.9 to 12.3 mM).

What about the solubility ([1]; organic solvent or mixture, DCM, 20-25° C., read-out: Solubility (mg/mL) 20-25° C.) of the same molecule?
Its solubility is less than 3.3 mg/mL.

And the solubility ([1]; organic solvent or mixture, DCM, 50° C., read-out: Solubility (mg/mL) 50° C.)?
Its solubility is less than 3.3 mg/mL.

And the solubility ([1]; organic solvent or mixture, DMSO, 20-25° C., read-out: Solubility (mg/mL) 20-25° C.)?
Its solubility is 167 to 200 mg/mL (≈ 306 to 366 mM).

What about the solubility ([1]; organic solvent or mixture, DMSO, 50° C., read-out: Solubility (mg/mL) 50° C.) of the same molecule?
The solubility was 250 to 333 mg/mL (≈ 458 to 610 mM).

What about the solubility ([1]; organic solvent or mixture, EA, 20-25° C., read-out: Solubility (mg/mL) 20-25° C.) of the same molecule?
The solubility was less than 3.3 mg/mL.

And the solubility ([1]; organic solvent or mixture, EA, 50° C., read-out: Solubility (mg/mL) 50° C.)?
Its solubility is less than 3.3 mg/mL.

What about the solubility ([1]; organic solvent or mixture, EtOH, 20-25° C., read-out: Solubility (mg/mL) 20-25° C.) of the same molecule?
Its solubility is 8 to 8.3 mg/mL (≈ 14.7 to 15.2 mM).

What about the solubility ([1]; organic solvent or mixture, EtOH, 50° C., read-out: Solubility (mg/mL) 50° C.) of the same molecule?
The solubility was 20 to 20.4 mg/mL (≈ 36.6 to 37.4 mM).

What about the solubility ([1]; organic solvent or mixture, EtOH/H2O = 95/5(V/V), 20-25° C., read-out: Solubility (mg/mL) 20-25° C.) of the same molecule?
Its solubility is 22.2 to 23.2 mg/mL (≈ 40.7 to 42.5 mM).

What about the solubility ([1]; organic solvent or mixture, EtOH/H2O = 95/5(V/V), 50° C., read-out: Solubility (mg/mL) 50° C.) of the same molecule?
The solubility was 45.4 to 47.6 mg/mL (≈ 83.1 to 87.2 mM).

What about the solubility ([1]; organic solvent or mixture, Heptane, 20-25° C., read-out: Solubility (mg/mL) 20-25° C.) of the same molecule?
The solubility was less than 3.3 mg/mL.

And the solubility ([1]; organic solvent or mixture, Heptane, 50° C., read-out: Solubility (mg/mL) 50° C.)?
The solubility was less than 3.3 mg/mL.

What about the solubility ([1]; organic solvent or mixture, IPA, 20-25° C., read-out: Solubility (mg/mL) 20-25° C.) of the same molecule?
Its solubility is less than 3.3 mg/mL.

What about the solubility ([1]; organic solvent or mixture, IPA, 50° C., read-out: Solubility (mg/mL) 50° C.) of the same molecule?
The solubility was 5 to 5.1 mg/mL (≈ 9.16 to 9.34 mM).

And the solubility ([1]; organic solvent or mixture, IPA/H2O = 95/5(V/V), 20-25° C., read-out: Solubility (mg/mL) 20-25° C.)?
The solubility was less than 3.3 mg/mL.

And the solubility ([1]; organic solvent or mixture, IPA/H2O = 95/5(V/V), 50° C., read-out: Solubility (mg/mL) 50° C.)?
Its solubility is 8 to 8.1 mg/mL (≈ 14.7 to 14.8 mM).

What about the solubility ([1]; organic solvent or mixture, IPAc, 20-25° C., read-out: Solubility (mg/mL) 20-25° C.) of the same molecule?
The solubility was less than 3.3 mg/mL.

And the solubility ([1]; organic solvent or mixture, IPAc, 50° C., read-out: Solubility (mg/mL) 50° C.)?
Its solubility is less than 3.3 mg/mL.

And the solubility ([1]; organic solvent or mixture, MTBE, 20-25° C., read-out: Solubility (mg/mL) 20-25° C.)?
Its solubility is less than 3.3 mg/mL.

What about the solubility ([1]; organic solvent or mixture, MTBE, 50° C., read-out: Solubility (mg/mL) 50° C.) of the same molecule?
Its solubility is less than 3.3 mg/mL.

And the solubility ([1]; organic solvent or mixture, MeOH, 20-25° C., read-out: Solubility (mg/mL) 20-25° C.)?
Its solubility is 32.2 to 33.3 mg/mL (≈ 59 to 61 mM).

What about the solubility ([1]; organic solvent or mixture, MeOH, 50° C., read-out: Solubility (mg/mL) 50° C.) of the same molecule?
The solubility was 74.1 to 76.9 mg/mL (≈ 136 to 141 mM).

And the solubility ([1]; organic solvent or mixture, THF, 20-25° C., read-out: Solubility (mg/mL) 20-25° C.)?
The solubility was 12.5 to 12.6 mg/mL (≈ 22.9 to 23.1 mM).

What about the solubility ([1]; organic solvent or mixture, THF, 50° C., read-out: Solubility (mg/mL) 50° C.) of the same molecule?
The solubility was 18.1 to 18.5 mg/mL (≈ 33.1 to 33.9 mM).

And the solubility ([1]; organic solvent or mixture, Toluene, 20-25° C., read-out: Solubility (mg/mL) 20-25° C.)?
The solubility was less than 3.3 mg/mL.

And the solubility ([1]; organic solvent or mixture, Toluene, 50° C., read-out: Solubility (mg/mL) 50° C.)?
Its solubility is less than 3.3 mg/mL.

What about the solubility ([1]; water, H2O, 20-25° C., read-out: Solubility (mg/mL) 20-25° C.) of the same molecule?
Its solubility is less than 3.3 mg/mL.

And the solubility ([1]; water, H2O, 50° C., read-out: Solubility (mg/mL) 50° C.)?
The solubility was less than 3.3 mg/mL.

For `Cn1cnc([C@@H]2C[C@@H]3C[C@@](O)(c4cc(OCC(C)(C)O)nn4C)C[C@@H]3C2)c1C(=O)Nc1ccc(F)c(Cl)c1` [Type 2, N-(3-chloro-4-fluorophenyl)-4-((2s,3aR,5r,6aS)-5-hydroxy-5-(3-(2-hydroxy-2-methylpropoxy)-1-methyl-1H-pyrazol-5-yl)octahydropentalen-2-yl)-1-methyl-1H-imidazole-5-carboxamide], which “RH range in which the form is stable (DVS)” value [2] is on record?
The value was 30-95 % RH.

And the “water content at 80% RH by DVS” value [2]?
Its value is 9.2%.

What about the “form change post-DVS (XRPD)” value [2] of the same molecule?
Its value is “Form change was observed post-DVS to a lower order hydrate; also recorded: converted to Type 3”.

For `Cn1cnc([C@@H]2C[C@@H]3C[C@@](O)(c4cc(OCC(C)(C)O)nn4C)C[C@@H]3C2)c1C(=O)Nc1ccc(F)c(Cl)c1` [Type 1, N-(3-chloro-4-fluorophenyl)-4-((2s,3aR,5r,6aS)-5-hydroxy-5-(3-(2-hydroxy-2-methylpropoxy)-1-methyl-1H-pyrazol-5-yl)octahydropentalen-2-yl)-1-methyl-1H-imidazole-5-carboxamide], which “Characterization (of approximate solubility)” value (shortened to “Characterization”) ([3]; 1-Butanol) is on record?
The value was “Moderate”.

And the “Characterization” value ([3]; 2-MeTHF)?
Its value is “Moderate”.

And the “Characterization” value ([3]; Acetone)?
The value was “Moderate”.

And the “Characterization” value ([3]; Acetonitrile)?
Its value is “Poor”.

What about the “Characterization” value ([3]; CPME) of the same molecule?
Its value is “Poor”.

And the “Characterization” value ([3]; DCM)?
Its value is “Poor”.

And the “Characterization” value ([3]; DMF)?
The value was “High”.

What about the “Characterization” value ([3]; DMSO) of the same molecule?
The value was “High”.

What about the “Characterization” value ([3]; EtOH) of the same molecule?
The value was “High”.

And the “Characterization” value ([3]; H2O)?
Its value is “Poor”.

What about the “Characterization” value ([3]; IPA) of the same molecule?
The value was “Moderate”.

What about the “Characterization” value ([3]; IPAc) of the same molecule?
The value was “Poor”.

What about the “Characterization” value ([3]; MEK) of the same molecule?
Its value is “Moderate”.

What about the “Characterization” value ([3]; MIBK) of the same molecule?
The value was “Poor”.

And the “Characterization” value ([3]; MTBE)?
The value was “Poor”.

And the “Characterization” value ([3]; MeOH)?
Its value is “High”.

What about the “Characterization” value ([3]; THF) of the same molecule?
Its value is “High”.

What about the “Characterization” value ([3]; Toluene) of the same molecule?
The value was “Poor”.

What about the “Characterization” value ([3]; n-Heptane) of the same molecule?
Its value is “Poor”.

What about the “Characterization” value ([3]; n-Propanol) of the same molecule?
The value was “Moderate”.

And the solubility ([3]; organic solvent or mixture, 1-Butanol)?
Its solubility is 2.4 to 8 mg/mL (≈ 4.4 to 14.7 mM).

What about the solubility ([3]; organic solvent or mixture, 2-MeTHF) of the same molecule?
The solubility was 2.2 to 7.3 mg/mL (≈ 4.03 to 13.4 mM).

And the solubility ([3]; organic solvent or mixture, Acetone)?
The solubility was 2.3 to 7.7 mg/mL (≈ 4.21 to 14.1 mM).

What about the solubility ([3]; organic solvent or mixture, Acetonitrile) of the same molecule?
Its solubility is less than 2 mg/mL.

What about the solubility ([3]; organic solvent or mixture, CPME) of the same molecule?
The solubility was less than 2.2 mg/mL.

And the solubility ([3]; organic solvent or mixture, DCM)?
The solubility was less than 2.4 mg/mL.

And the solubility ([3]; organic solvent or mixture, DMF)?
Its solubility is greater than 48 mg/mL.

What about the solubility ([3]; organic solvent or mixture, DMSO) of the same molecule?
Its solubility is greater than 48 mg/mL.

And the solubility ([3]; organic solvent or mixture, EtOH)?
Its solubility is 20 to 40 mg/mL (≈ 36.6 to 73.3 mM).

And the solubility ([3]; organic solvent or mixture, IPA)?
The solubility was 2.2 to 7.3 mg/mL (≈ 4.03 to 13.4 mM).

And the solubility ([3]; organic solvent or mixture, IPAc)?
The solubility was less than 2.1 mg/mL.

What about the solubility ([3]; organic solvent or mixture, MEK) of the same molecule?
Its solubility is 2.2 to 7.3 mg/mL (≈ 4.03 to 13.4 mM).

And the solubility ([3]; organic solvent or mixture, MIBK)?
The solubility was less than 2.2 mg/mL.

What about the solubility ([3]; organic solvent or mixture, MTBE) of the same molecule?
The solubility was less than 2 mg/mL.

And the solubility ([3]; organic solvent or mixture, MeOH)?
Its solubility is greater than 42 mg/mL.

And the solubility ([3]; organic solvent or mixture, THF)?
Its solubility is 21 to 42 mg/mL (≈ 38.5 to 76.9 mM).

And the solubility ([3]; organic solvent or mixture, Toluene)?
The solubility was less than 2.5 mg/mL.

What about the solubility ([3]; organic solvent or mixture, n-Heptane) of the same molecule?
Its solubility is less than 2.3 mg/mL.

What about the solubility ([3]; organic solvent or mixture, n-Propanol) of the same molecule?
The solubility was 2.2 to 7.3 mg/mL (≈ 4.03 to 13.4 mM).

What about the solubility ([3]; water, H2O) of the same molecule?
The solubility was less than 2.5 mg/mL.

What about the “water content at 80% RH by DVS” value [2] of the same molecule?
Its value is 0.67%.

What about the “form change post-DVS (XRPD)” value [2] of the same molecule?
The value was “no form change”.

And the “hygroscopicity (from DVS)” value ([2]; based on water sorption at 80% RH)?
The value was “slightly hygroscopic”.
